According to patent US20080227797A1, “Pyridopyrimidine Derivatives as Pde4 Inhibitors for the Treatment of Inflammatory and Immune Diseases” (ASTRAZENECA AB, priority 2005, published 2008):

Molecular target: recombinant Human Phosphodiesterase B2 (PDE4B2) (Homo sapiens, UniProt Q07343)
Test: Human Phosphodiesterase B2 Alpha Screen Assay
Format: biochemical
Conditions: cAMP substrate, Alpha Screen cAMP kit, 60 minutes at room temperature
Description: Human Phosphodiesterase B2 Alpha Screen Assay
The assay uses recombinant Human Phosphodiesterase B2 (PDE4B2) produced in house (PrAZL0133), stored at −20° C. The substrate uses cAMP, part of the Alpha Screen cAMP kit (Perkin Elmer, Cat# 6760625M), stored at 4° C. The Alpha Screen kit also includes biotinylated cAMP, acceptor and donor beads.
The assay additions were as follows: Test compounds and controls were added to white 384-well flat-bottom plates (Greiner, Cat# 781075), 0.2 μl in 100% DMSO, followed by 10 μl PDE4B2 in reaction buffer. The reaction buffer constitution was: 50 mM Tris (pH 7.5), 8.3 mM MgCl2, 1.7 mM EGTA and 0.01% (w/v) Brij®35. The enzyme and the compounds were incubated at room temperature for 15 minutes. Then 10 μl cAMP in reaction buffer was added. The assay was stopped after 60 minutes incubation at room temperature by adding 10 μl acceptor beads in detection buffer with 40 mM EDTA. The detection buffer constitution was: 5 mM Tris (pH 7.5), 0.1% (w/v) BSA and 0.1% (v/v) Tween 20. This addition followed by an addition of 10 μl donor beads in detection buffer, with biotinylated cAMP. The plates were then incubated, dark at room temperature, for 5 hours followed by measurement on a Fusion™-α analyser. IC50 values (presented in Table 1) were determined using Xlfit curve fitting using model 205.

Sequence of recombinant Human Phosphodiesterase B2 (PDE4B2) (Q07343 1-564 isoform Q07343-2): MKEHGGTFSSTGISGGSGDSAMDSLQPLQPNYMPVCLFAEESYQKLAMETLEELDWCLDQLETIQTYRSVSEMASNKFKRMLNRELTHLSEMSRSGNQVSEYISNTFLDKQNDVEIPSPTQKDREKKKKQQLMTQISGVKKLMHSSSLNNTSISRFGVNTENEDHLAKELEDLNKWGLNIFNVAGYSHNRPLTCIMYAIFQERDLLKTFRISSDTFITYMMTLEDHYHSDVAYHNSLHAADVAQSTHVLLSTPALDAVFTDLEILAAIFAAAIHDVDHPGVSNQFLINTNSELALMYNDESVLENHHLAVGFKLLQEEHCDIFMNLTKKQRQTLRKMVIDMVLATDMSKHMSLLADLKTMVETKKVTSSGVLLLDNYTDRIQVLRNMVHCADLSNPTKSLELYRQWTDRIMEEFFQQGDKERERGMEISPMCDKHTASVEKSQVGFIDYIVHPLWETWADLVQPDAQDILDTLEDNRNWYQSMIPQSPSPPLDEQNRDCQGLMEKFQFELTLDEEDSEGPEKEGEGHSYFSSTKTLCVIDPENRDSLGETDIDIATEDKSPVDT

Row | SMILES | IC50 [nM]
1 | COC(=O)c1ccc(C(=O)N[C@H]2CC[C@@H](n3c(=O)c4cc(F)cnc4n(-c4ccc(F)c(F)c4)c3=O)CC2)cc1 [Example 25, methyl 4-[({cis-4-[1-(3,4-difluorophenyl)-6-fluoro-2,4-dioxo-1,4-dihydropyrido[2,3-d]pyrimidin-3(2H)-yl]cyclohexyl}amino)carbonyl]benzoate] | 1.9
2 | COC(=O)CCCC(=O)N[C@H]1CC[C@@H](n2c(=O)c3cc(F)cnc3n(-c3ccc(F)c(F)c3)c2=O)CC1 [Example 27, methyl 5-({cis-4-[1-(3,4-difluorophenyl)-6-fluoro-2,4-dioxo-1,4-dihydropyrido[2,3-d]pyrimidin-3(2H)-yl]cyclohexyl}amino)-5-oxopentanoate] | 1.7
3 | COC(=O)c1cccc(C(=O)N[C@H]2CC[C@@H](n3c(=O)c4cc(F)cnc4n(-c4ccc(F)c(F)c4)c3=O)CC2)c1 [Example 29, methyl 3-[({cis-4-[1-(3,4-difluorophenyl)-6-fluoro-2,4-dioxo-1,4-dihydropyrido[2,3-d]pyrimidin-3(2H)-yl]cyclohexyl}amino)carbonyl]benzoate] | 1.2
4 | O=C(N[C@H]1CC[C@@H](n2c(=O)c3cc(F)cnc3n(-c3ccc(F)c(F)c3)c2=O)CC1)c1n[nH]c2ccccc12 [Example 32, N-{cis-4-[1-(3,4-difluorophenyl)-6-fluoro-2,4-dioxo-1,4-dihydropyrido[2,3-d]pyrimidin-3(2H)-yl]cyclohexyl}-1H-indazole-3-carboxamide] | 0.6
5 | O=C(N[C@H]1CC[C@@H](n2c(=O)c3cc(F)cnc3n(-c3ccc(F)c(F)c3)c2=O)CC1)c1cn2ccccc2n1 [Example 33, N-{cis-4-[1-(3,4-difluorophenyl)-6-fluoro-2,4-dioxo-1,4-dihydropyrido[2,3-d]pyrimidin-3(2H)-yl]cyclohexyl}imidazo[1,2-a]pyridine-2-carboxamide] | 0.5
6 | CSc1cccc(-n2c(=O)n([C@H]3CC[C@@H](NC(=O)c4cc(C)ccc4O)CC3)c(=O)c3cc(F)cnc32)c1 [Example 35, N-{cis-4-[6-fluoro-1-[3-(methylthio)phenyl]-2,4-dioxo-1,4-dihydropyrido[2,3-d]pyrimidin-3(2H)-yl]cyclohexyl}-2-hydroxy-5-methylbenzamide] | 1.4
7 | CSc1cccc(-n2c(=O)n([C@H]3CC[C@@H](NC(=O)[C@H](O)c4ccccc4)CC3)c(=O)c3cc(F)cnc32)c1 [Example 37, (2R)-N-{cis-4-[6-fluoro-1-[3-(methylthio)phenyl]-2,4-dioxo-1,4-dihydropyrido[2,3-d]pyrimidin-3(2H)-yl]cyclohexyl}-2-hydroxy-2-phenylacetamide] | 0.5
8 | CSc1cccc(-n2c(=O)n([C@H]3CC[C@@H](NC(=O)[C@@H](O)c4ccccc4)CC3)c(=O)c3cc(F)cnc32)c1 [Example 38, (2S)-N-{cis-4-[6-fluoro-1-[3-(methylthio)phenyl]-2,4-dioxo-1,4-dihydropyrido[2,3-d]pyrimidin-3(2H)-yl]cyclohexyl}-2-hydroxy-2-phenylacetamide] | < 16
9 | CSc1cccc(-n2c(=O)n([C@H]3CC[C@@H](NC(=O)CO)CC3)c(=O)c3cc(F)cnc32)c1 [Example 39, N-{cis-4-[6-fluoro-1-[3-(methylthio)phenyl]-2,4-dioxo-1,4-dihydropyrido[2,3-d]pyrimidin-3(2H)-yl]cyclohexyl}-2-hydroxyacetamide] | 23.7
10 | CS(=O)(=O)c1cccc(-n2c(=O)n([C@H]3CC[C@@H](NC(=O)c4cc(Cl)ccc4O)CC3)c(=O)c3cc(F)cnc32)c1 [Example 40, 5-chloro-N-{cis-4-[6-fluoro-1-[3-(methylsulfonyl)phenyl]-2,4-dioxo-1,4-dihydropyrido[2,3-d]pyrimidin-3(2H)-yl]cyclohexyl}-2-hydroxybenzamide] | 90.6
11 | CS(=O)(=O)c1cccc(-n2c(=O)n([C@H]3CC[C@@H](NC(=O)c4cc(CO)ccc4O)CC3)c(=O)c3cc(F)cnc32)c1 [Example 41, N-{cis-4-[6-fluoro-1-[3-(methylsulfonyl)phenyl]-2,4-dioxo-1,4-dihydropyrido[2,3-d]pyrimidin-3(2H)-yl]cyclohexyl}-2-hydroxy-5-(hydroxymethyl)benzamide] | 51.9
12 | CS(=O)(=O)c1cccc(-n2c(=O)n([C@H]3CC[C@@H](NC(=O)[C@H](O)c4ccccc4)CC3)c(=O)c3cc(F)cnc32)c1 [Example 42, (2R)-N-{cis-4-[6-fluoro-1-[3-(methylsulfonyl)phenyl]-2,4-dioxo-1,4-dihydropyrido[2,3-d]pyrimidin-3(2H)-yl]cyclohexyl}-2-hydroxy-2-phenylacetamide] | < 16
13 | CS(=O)(=O)c1cccc(-n2c(=O)n([C@H]3CC[C@@H](NC(=O)[C@@H](O)c4ccccc4)CC3)c(=O)c3cc(F)cnc32)c1 [Example 43, (2S)-N-{cis-4-[6-fluoro-1-[3-(methylsulfonyl)phenyl]-2,4-dioxo-1,4-dihydropyrido[2,3-d]pyrimidin-3(2H)-yl]cyclohexyl}-2-hydroxy-2-phenylacetamide] | 36.4
14 | CS(=O)(=O)c1cccc(-n2c(=O)n([C@H]3CC[C@@H](NC(=O)CO)CC3)c(=O)c3cc(F)cnc32)c1 [Example 44, N-{cis-4-[6-fluoro-1-[3-(methylsulfonyl)phenyl]-2,4-dioxo-1,4-dihydropyrido[2,3-d]pyrimidin-3(2H)-yl]cyclohexyl}-2-hydroxyacetamide] | 432
15 | COC(=O)c1cccc(-n2c(=O)n([C@H]3CC[C@@H](NC(=O)c4cc(C)ccc4O)CC3)c(=O)c3cc(F)cnc32)c1 [Example 45, methyl 3-[6-fluoro-3-{cis-4-[(2-hydroxy-5-methylbenzoyl)amino]cyclohexyl}-2,4-dioxo-3,4-dihydropyrido[2,3-d]pyrimidin-1(2H)-yl]benzoate] | < 16
16 | O=C(N[C@H]1CC[C@@H](n2c(=O)c3cc(F)cnc3n(-c3ccc(F)c(F)c3)c2=O)CC1)C1CC1 [Example 48, N-{cis-4-[1-(3,4-Difluorophenyl)-6-fluoro-2,4-dioxo-1,4-dihydropyrido[2,3-d]pyrimidin-3(2H)-yl]cyclohexyl}cyclopropanecarboxamide] | 8.8

More lines, in order of falling IC50, values ahead:

Row | IC50 [nM] | SMILES
17 | 60.1 | CS(=O)(=O)N[C@H]1CC[C@@H](n2c(=O)c3cc(F)cnc3n(-c3ccc(F)c(F)c3)c2=O)CC1 [Example 47, N-{cis-4-[1-(3,4-Difluorophenyl)-6-fluoro-2,4-dioxo-1,4-dihydropyrido[2,3-d]pyrimidin-3(2H)-yl]cyclohexyl}methanesulfonamide]
18 | 3.2 | CSc1cccc(-n2c(=O)n([C@H]3CC[C@@H](NC(=O)c4cc(Cl)ccc4O)CC3)c(=O)c3cc(F)cnc32)c1 [Example 34, 5-chloro-N-{cis-4-[6-fluoro-1-[3-(methylthio)phenyl]-2,4-dioxo-1,4-dihydropyrido[2,3-d]pyrimidin-3(2H)-yl]cyclohexyl}-2-hydroxybenzamide]
19 | 2.9 | CSc1cccc(-n2c(=O)n([C@H]3CC[C@@H](NC(=O)c4cc(CO)ccc4O)CC3)c(=O)c3cc(F)cnc32)c1 [Example 36, N-{cis-4-[6-fluoro-1-[3-(methylthio)phenyl]-2,4-dioxo-1,4-dihydropyrido[2,3-d]pyrimidin-3(2H)-yl]cyclohexyl}-2-hydroxy-5-(hydroxymethyl)benzamide]
20 | 1.5 | O=C(CCc1cccc(O)c1)N[C@H]1CC[C@@H](n2c(=O)c3cc(F)cnc3n(-c3ccc(F)c(F)c3)c2=O)CC1 [Example 31, N-{cis-4-[1-(3,4-difluorophenyl)-6-fluoro-2,4-dioxo-1,4-dihydropyrido[2,3-d]pyrimidin-3(2H)-yl]cyclohexyl}-3-(3-hydroxyphenyl)propanamide]
21 | 1.1 | O=C(N[C@H]1CC[C@@H](n2c(=O)c3cc(F)cnc3n(-c3ccc(F)c(F)c3)c2=O)CC1)c1c(O)cccc1F [Example 30, N-{cis-4-[1-(3,4-difluorophenyl)-6-fluoro-2,4-dioxo-1,4-dihydropyrido[2,3-d]pyrimidin-3(2H)-yl]cyclohexyl}-2-fluoro-6-hydroxybenzamide]
22 | 1 | COc1ccc(C(=O)N[C@H]2CC[C@@H](n3c(=O)c4cc(F)cnc4n(-c4ccc(F)c(F)c4)c3=O)CC2)cc1O [Example 26, N-{cis-4-[1-(3,4-difluorophenyl)-6-fluoro-2,4-dioxo-1,4-dihydropyrido[2,3-d]pyrimidin-3(2H)-yl]cyclohexyl}-3-hydroxy-4-methoxybenzamide]
23 | 0.9 | O=C(Cc1cccc(O)c1)N[C@H]1CC[C@@H](n2c(=O)c3cc(F)cnc3n(-c3ccc(F)c(F)c3)c2=O)CC1 [Example 28, N-{cis-4-[1-(3,4-difluorophenyl)-6-fluoro-2,4-dioxo-1,4-dihydropyrido[2,3-d]pyrimidin-3(2H)-yl]cyclohexyl}-2-(3-hydroxyphenyl)acetamide]
24 | 0.6 | O=C(CNC(=O)c1ccccc1O)N[C@H]1CC[C@@H](n2c(=O)c3cc(F)cnc3n(-c3ccc(F)c(F)c3)c2=O)CC1 [Example 24, N-[2-({cis-4-[1-(3,4-difluorophenyl)-6-fluoro-2,4-dioxo-1,4-dihydropyrido[2,3-d]pyrimidin-3(2H)-yl]cyclohexyl}amino)-2-oxoethyl]-2-hydroxybenzamide]
